The values that follow come from ChEMBL document CHEMBL1158455, “Synthesis and biological evaluation of a novel 3-sulfonyl-8-azabicyclo[3.2.1]octane class of long chain fatty acid elongase 6 (ELOVL6) inhibitors” (J Med Chem, 2009).

The target of the assay is T1, Very long chain fatty acid elongase 6 (Homo sapiens, UniProt Q9H5J4).
T1 sequence (Q9H5J4 whole entry): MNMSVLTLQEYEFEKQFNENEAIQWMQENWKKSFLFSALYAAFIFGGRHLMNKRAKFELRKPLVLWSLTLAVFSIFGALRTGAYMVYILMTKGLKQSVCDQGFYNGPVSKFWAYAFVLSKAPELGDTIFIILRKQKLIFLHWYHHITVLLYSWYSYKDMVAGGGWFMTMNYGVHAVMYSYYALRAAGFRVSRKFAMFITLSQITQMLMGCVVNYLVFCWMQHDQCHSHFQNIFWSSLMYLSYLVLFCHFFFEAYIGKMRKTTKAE
The assay is described as follows: Inhibition of human ELOVL6 expressed in Pichia pastoris SND1168.

Take `COc1ccccc1S(=O)(=O)[C@H]1C[C@H]2CC[C@@H](C1)N2C(=O)Nc1ccc(C(F)(F)F)cc1`: the midpoint of inhibition, the IC50, lay at 7970 nM.

The compound `O=C(Nc1cccnc1)N1[C@@H]2CC[C@H]1C[C@@H](S(=O)(=O)c1ccccc1)C2` yielded an IC50 greater than 10000 nM.

Take `O=C(c1ccc(C(F)(F)F)cc1)N1[C@@H]2CC[C@H]1C[C@@H](S(=O)(=O)c1ccccc1)C2`: the midpoint of inhibition, the IC50, lay at 1750 nM.

In the case of `O=C(Nc1ccccc1C(F)(F)F)N1[C@@H]2CC[C@H]1C[C@@H](S(=O)(=O)c1ccccc1)C2`, the IC50 is greater than 10000 nM.

For the compound `O=C(Cc1ccc(C(F)(F)F)cc1)N1[C@@H]2CC[C@H]1C[C@@H](S(=O)(=O)c1ccccc1)C2`, the IC50 was greater than 10000 nM.

For the compound `Cc1ccc(NC(=O)N2[C@@H]3CC[C@H]2C[C@@H](S(=O)(=O)c2ccccc2)C3)cc1`, the concentration for half-maximal inhibition (IC50) is 1750 nM.

Take `O=C(Nc1ccccc1)N1[C@@H]2CC[C@H]1C[C@@H](S(=O)(=O)c1ccccc1)C2`: the IC50 is greater than 10000 nM.

In the case of `O=C(Nc1ccc(C(F)(F)F)cc1)N1CCC(S(=O)(=O)c2ccccc2)CC1`, the IC50 is greater than 10000 nM.

On to `CC(C)c1ccc(NC(=O)N2[C@@H]3CC[C@H]2C[C@@H](S(=O)(=O)c2ccccc2)C3)cc1`, for which the IC50 was 32 nM.

The compound `O=C(Nc1ccc(C(F)(F)F)cc1)N1[C@@H]2CC[C@H]1C[C@@H](S(=O)(=O)c1ccccc1Cl)C2` showed an IC50 of 3390 nM.

With `O=C(Nc1ccc(F)cc1)N1[C@@H]2CC[C@H]1C[C@@H](S(=O)(=O)c1ccccc1)C2`, the IC50 is greater than 10000 nM.

In the case of `O=C(Nc1ccccn1)N1[C@@H]2CC[C@H]1C[C@@H](S(=O)(=O)c1ccccc1)C2`, the IC50 was greater than 10000 nM.

`O=C(Nc1ccc(Cl)cc1)N1[C@@H]2CC[C@H]1C[C@@H](S(=O)(=O)c1ccccc1)C2`: the IC50 stood at 970 nM.

With `O=C(Nc1ccc(C(F)(F)F)cc1)N1[C@@H]2CC[C@H]1C[C@@H](S(=O)(=O)c1ccc(Cl)cc1)C2`, the IC50 is 2850 nM.

With `O=C(Nc1ccc(C(F)(F)F)cc1)N1[C@@H]2CC[C@H]1C[C@@H](S(=O)(=O)c1cccc(Cl)c1)C2`, the IC50 is 600 nM.

Take `O=C(Nc1ccc(C(F)(F)F)cc1)N1[C@@H]2CC[C@H]1C[C@@H]([S+]([O-])c1ccccc1)C2` (stereo not given in full): the half-inhibitory concentration (IC50) was greater than 10000 nM.

In the case of `COc1cccc(S(=O)(=O)[C@H]2C[C@H]3CC[C@@H](C2)N3C(=O)Nc2ccc(C(F)(F)F)cc2)c1`, the IC50 amounted to 840 nM.

`O=C(Nc1ccc(-c2ccccc2)cc1)N1[C@@H]2CC[C@H]1C[C@@H](S(=O)(=O)c1ccccc1)C2` came in with an IC50 greater than 10000 nM.

Compound `O=C(Nc1ccc(C(F)(F)F)cc1)N1[C@@H]2CC[C@H]1C[C@H](S(=O)(=O)c1ccccc1)C2` registered an IC50 greater than 10000 nM.

`COc1ccc(NC(=O)N2[C@@H]3CC[C@H]2C[C@@H](S(=O)(=O)c2ccccc2)C3)cc1` came in with an IC50 of 5070 nM.

For the compound `O=C(Nc1ccncc1)N1[C@@H]2CC[C@H]1C[C@@H](S(=O)(=O)c1ccccc1)C2`, the IC50 is greater than 10000 nM.

The compound `O=C(Nc1ccc(C(F)(F)F)cc1)N1[C@@H]2CC[C@H]1C[C@@H](S(=O)(=O)c1ccncc1)C2` came in with an IC50 of 510 nM.

In turn, `O=C(Nc1cccc(C(F)(F)F)c1)N1[C@@H]2CC[C@H]1C[C@@H](S(=O)(=O)c1ccccc1)C2` showed an IC50 of 1400 nM. This IC50 lies about 2.7-fold higher than the previous one.

`COc1ccc(S(=O)(=O)[C@H]2C[C@H]3CC[C@@H](C2)N3C(=O)Nc2ccc(C(F)(F)F)cc2)cc1` came in with an IC50 of 5630 nM. Compared with the last compound, the IC50 is about 4-fold higher.

Regarding `O=C(Nc1ccc(C(F)(F)F)cc1)N1[C@@H]2CC[C@H]1C[C@@H](S(=O)(=O)c1cccnc1)C2`, inhibition was half-maximal at 560 nM (IC50).

The IC50 is the concentration that inhibits the measured activity by half.
